Experimental findings from patent US11970493B2, “Autotaxin inhibitor compounds” (ILDONG PHARMACEUTICAL CO., LTD., priority 2020, dated 2024) are described below.

SMILES strings stand for the structures. Some results are limits rather than exact numbers.

Data set [1] has as its target hATX/ENPP2 (Homo sapiens, UniProt Q13822). The data set is described as follows: hATX/ENPP2 biochemical assay using 16:0-LPC as substrate (Amplex Red/choline oxidase/HRP fluorescence). Conditions: hENPP2 2.5 nM, LPC (16:0) substrate. Summed up: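 Enzyme preincubated with compounds 15 min at room temperature in 50 mM Tris-HCl pH 8.0, 140 mM NaCl, 5 mM CaCl2, 0.01% Triton X-100. Reaction started with 80 μM LPC (16:0) stock plus Amplex Red/choline oxidase/HRP mix; fluorescence (ex 530/em 590 nm) read kinetically. IC50 from slope between 60 and 70 min.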

Data set [2] relates to LPA 18:2 level in mouse plasma. The data set can be described thus: In vitro LPA assay, reduction of LPA 18:2 level in mouse plasma (LC-MS/MS). The class given is biochemical. The conditions noted are these: 2 hr at 37° C., LPA 18:2 reduction. Here is the method: (§1) Autotaxin (ATX) plays an important role in lysophosphatidic acid (LPA) signaling. An in vitro LPA assay was conducted to determine IC50 values of the test compounds on reduction of LPA 18:2 level in rat or mouse plasma. This example describes the assay data (IC50 value ranges) of exemplary compounds from LPA assays using mouse and rat plasma. Compound GPLG-1690 was assayed as a reference compound.
(§2) The 10 mM DMSO stock solutions of test compounds and 4-fold serial dilutions of the test compounds were prepared at various concentrations. The diluted solutions of the compounds were diluted with 1×PBS (pH 7.5) buffer. 38 μL of rat or mouse plasma samples were mixed with 2 μL of the diluted solutions of the compounds or 2% DMSO solutions in 96-well plate (final 0.1% DMSO). After incubating for 2 hr at 37° C., 120 μL MeOH containing IS (250 ng/mL of LPA 17:0) was added to each well. Mixture was vortexed for 1 min, and then centrifuged for 30 min (4000 rpm, 4° C.). 100 μL supernatant was transferred to a 96-well plate containing 100 μL pure water and the plate was shaken for 10 min. 5 μL supernatant was injected into LC-MS/MS system. No calibration curve will be prepared for LPA 18:2 and all quantifications were performed based on peak area ratios (LPA 18:2/LPA 17:0). For each concentration of compound LPA data were expressed as percentage of reduction (% reduction) using the formula. 100−[((LPA ratio-LPA ratio in control sample after 0 hr incubation)/(LPA ratio in control sample after 2 hr incubation—LPA ratio in control sample after 0 hr incubation))*100]. Data

In data set [3] the test system is LPA 18:2 level in rat plasma. The data set can be described thus: In vitro LPA assay, reduction of LPA 18:2 level in rat plasma (LC-MS/MS). The class given is biochemical. The conditions noted are these: 2 hr at 37° C., LPA 18:2 reduction. Here is the method: as §1, §2
Data set [4] in a line: Mouse PK study (IV and PO). Type of data set: in vivo. The conditions noted are these: male, C57BL/6, mouse, plasma, male C57BL/6 mice; for AUC(0-inf): IV 2 mg/kg and PO 10 mg/kg study; for bioavailability / Cmax: po, 10 mg/kg; for bioavailability: IV 2 mg/kg and PO 10 mg/kg, read-out: F % (bioavailability); for Cmax: PO group 10 mg/kg. Here is the method: This example describes the pharmacokinetic (PK) data obtained for various compounds of the present disclosure, from studies using mice. The following PK parameters were calculated: • Bioavailability (F %) were calculated using the linear/log trapezoidal rule • Peak plasma concentrations (Cmax (ng/mL)) were taken directly from the plasma concentration vs. time profiles for the PO group • Area under the curve e.g., the area under the concentration curve from time 0 to infinity (AUC0-inf(ng*h/mL)). Experimental Procedures
After intravenous (IV) and oral (PO) administration at 2 mg/kg and 10 mg/kg to male C57BL/6 mice, respectively, the blood samples were collected at the designed sampling time points. All blood samples were transferred into pre-chilled commercial polyethylene microcentrifuge tubes containing K2-EDTA as an anticoagulant. Samples were processed for plasma by centrifugation. Plasma samples was transferred into polypropylene tubes pre-chilled on dry ice and then quickly frozen over dry ice and kept at −70±10° C. until LC-MS/MS analysis. Mice plasma samples were analyzed using qualified bioanalytical methods based on protein precipitation followed by LC-MS/MS analysis. Individual plasma concentration data of each compound was subjected to noncompartmental pharmacokinetic analysis using Phoenix WinNonlin™. Nominal doses were used for pharmacokinetic parameters calculation.

As usually defined, the IC50 is the concentration needed to halve the response being measured. A higher IC50 goes with a need for much substance. What is called AUC(0-inf) is the area under the concentration-time curve extrapolated to infinity. Low readings indicate low exposure, high ones high exposure. As usually defined, the bioavailability is dose-corrected exposure relative to a reference, in per cent. As usually defined, the Cmax is the peak of the concentration-time curve.

On to `CCc1nc2ccc(-c3ccc(N4CCN(C(=O)N5CC[C@@H](O)C5)CC4)nc3)cn2c1N(C)c1nc(-c2ccc(F)cc2)c(C#N)s1` [Compound 92, (R)-2-((2-ethyl-6-(6-(4-(3-hydroxypyrrolidine-1-carbonyl)piperazin-1-yl)pyridin-3-yl)imidazo[1,2-a]pyridin-3-yl)(methyl)amino)-4-(4-fluorophenyl)thiazole-5-carbonitrile], for which the IC50 in data set [1] is at most 0.02 µM. In addition, in data set [2], the IC50 is at most 0.2 µM. The same molecule came in with an IC50 in data set [3] of 0.2 to 0.8 µM. Moreover, in data set [4], the AUC(0-inf) is 22800 ng·h/mL, the bioavailability was found to be 25% and the highest level (Cmax) was 4260 ng/mL.

In data set [1], `CCc1nc2ccc(-c3ccc(N4CCC(C(=O)N5CCCC5)CC4)nc3)cn2c1N(C)c1nc(-c2ccc(F)cc2)c(C#N)s1` [Compound 113, 2-((2-ethyl-6-(6-(4-(pyrrolidine-1-carbonyl)piperidin-1-yl)pyridin-3-yl)imidazo[1,2-a]pyridin-3-yl)(methyl)amino)-4-(4-fluorophenyl)thiazole-5-carbonitrile] gave an IC50 of at most 0.02 µM. The same molecule came in with an IC50 in data set [2] above 0.8 µM. For the same molecule, the IC50 in data set [3] is at most 0.2 µM. Also, in data set [4], the AUC(0-inf) was 40500 ng·h/mL, the bioavailability is 44.7% and the concentration peaked (Cmax) at 6530 ng/mL.

Take `CCc1nc2ccc(-c3ccc(N4CCC(C(=O)N5CC[C@@H](O)C5)CC4)nc3)cn2c1N(C)c1nc(-c2ccc(F)cc2)c(C#N)s1` [Compound 114, (R)-2-((2-ethyl-6-(6-(4-(3-hydroxypyrrolidine-1-carbonyl)piperidin-1-yl)pyridin-3-yl)imidazo[1,2-a]pyridin-3-yl)(methyl)amino)-4-(4-fluorophenyl)thiazole-5-carbonitrile]: in data set [1], the IC50 was at most 0.02 µM. The IC50 in data set [2] fell in the range of 0.2 to 0.8 µM. In addition, the half-maximal inhibitory concentration (IC50) in data set [3] was in the range of 0.2 to 0.8 µM. In addition, in data set [4], the AUC(0-inf) was found to be 38000 ng·h/mL, the bioavailability amounted to 28.4% and the concentration peaked (Cmax) at 7040 ng/mL.

With `CCc1nc2ccc(-c3cnc(N4CCC(C(=O)N5CCCC5)CC4)nc3)cn2c1N(C)c1nc(-c2ccc(F)cc2)c(C#N)s1` [Compound 115, 2-((2-ethyl-6-(2-(4-(pyrrolidine-1-carbonyl)piperidin-1-yl)pyrimidin-5-yl)imidazo [1,2-a]pyridin-3-yl)(methyl)amino)-4-(4-fluorophenyl)thiazole-5-carbonitrile], the IC50 is at most 0.02 µM in data set [1], 0.2 to 0.8 µM in data set [2] and at most 0.2 µM in data set [3]. In data set [4], this molecule yielded an AUC(0-inf) of 37100 ng·h/mL. Further, the bioavailability in data set [4] was 48.5%.

With `CCc1nc2ccc(-c3ccc(N4CCC(C(=O)N5CCC(O)CC5)CC4)nc3)cn2c1N(C)c1nc(-c2ccc(F)cc2)c(C#N)s1` [Compound 119, 2-((2-ethyl-6-(6-(4-(4-hydroxypiperidine-1-carbonyl)piperidin-1-yl)pyridin-3-yl)imidazo[1,2-a]pyridin-3-yl)(methyl)amino)-4-(4-fluorophenyl)thiazole-5-carbonitrile], the IC50 in data set [1] is at most 0.02 µM. The molecule also gave a half-maximal inhibitory concentration (IC50) in data set [2] of 0.2 to 0.8 µM. Further, in data set [3], the 50% inhibitory concentration (IC50) lay within 0.2 to 0.8 µM. Also, in data set [4], the AUC(0-inf) came to 57100 ng·h/mL, the bioavailability worked out at 33.1% and the peak level (Cmax) was 7680 ng/mL.

The molecule `CCc1nc2ccc(-c3ccc(N4CCC(C(=O)N5CC(O)C5)CC4)nc3)cn2c1N(C)c1nc(-c2ccc(F)cc2)c(C#N)s1` [Compound 120, 2-((2-ethyl-6-(6-(4-(3-hydroxyazetidine-1-carbonyl)piperidin-1-yl)pyridin-3-yl)imidazo[1,2-a]pyridin-3-yl)(methyl)amino)-4-(4-fluorophenyl) thiazole-5-carbonitrile] returned a half-inhibitory concentration (IC50) in data set [1] of at most 0.02 µM. This molecule gave an IC50 in data set [2] of 0.2 to 0.8 µM. The same molecule displayed an IC50 in data set [3] of 0.2 to 0.8 µM. For the same molecule, in data set [4], the total exposure AUC(0-inf) came to 50500 ng·h/mL, the bioavailability was 40.8% and the maximum concentration (Cmax) was determined as 8470 ng/mL.

Turning to `CCc1nc2ccc(-c3cnc(N4CCC(C(=O)N5CCC5)CC4)nc3)cn2c1N(C)c1nc(-c2ccc(F)cc2)c(C#N)s1` [Compound 123, 2-((6-(2-(4-(azetidine-1-carbonyl)piperidin-1-yl)pyrimidin-5-yl)-2-ethylimidazo[1,2-a]pyridin-3-yl)(methyl)amino)-4-(4-fluorophenyl)thiazole-5-carbonitrile], the figures for the IC50 in data set [1], in data set [2] and in data set [3] were at most 0.02 µM, 0.2 to 0.8 µM and 0.2 to 0.8 µM, respectively. The molecule further yielded a total exposure AUC(0-inf) in data set [4] of 61000 ng·h/mL. Further, the bioavailability in data set [4] came out at 55.7%. The same molecule showed a Cmax in data set [4] of 7750 ng/mL.

In turn, `CCc1nc2ccc(-c3ccc(N4CC(C(=O)N5CCC5)C4)nc3)cn2c1N(C)c1nc(-c2ccc(F)cc2)c(C#N)s1` [Compound 124, 2-((6-(6-(3-(azetidine-1-carbonyl)azetidin-1-yl)pyridin-3-yl)-2-ethylimidazo[1,2-a]pyridin-3-yl)(methyl)amino)-4-(4-fluorophenyl)thiazole-5-carbonitrile] yielded an IC50 in data set [1] of 0.02 to 0.2 µM. The molecule further yielded a concentration for half-maximal inhibition (IC50) in data set [2] of 0.2 to 0.8 µM. Further, in data set [3], the 50% inhibitory concentration (IC50) lay in the range of 0.2 to 0.8 µM. Besides, in data set [4], the AUC(0-inf) came out at 13100 ng·h/mL, the bioavailability is 40% and the maximum concentration (Cmax) worked out at 3820 ng/mL.

With `CCc1nc2ccc(-c3ccc(N4CCC(C(=O)N5CCOCC5)CC4)nc3)cn2c1N(C)c1nc(-c2ccc(F)cc2)c(C#N)s1` [Compound 126, 2-((2-ethyl-6-(6-(4-(morpholine-4-carbonyl)piperidin-1-yl)pyridin-3-yl)imidazo[1,2-a]pyridin-3-yl)(methyl)amino)-4-(4-fluorophenyl)thiazole-5-carbonitrile], in data set [1], the IC50 was at most 0.02 µM. Further, the concentration for half-maximal inhibition (IC50) in data set [2] lay in the range of 0.2 to 0.8 µM. Further, the IC50 in data set [3] is at most 0.2 µM. Further, in data set [4], the AUC(0-inf) was 38300 ng·h/mL, the bioavailability was determined as 59.2% and the peak level (Cmax) was 5580 ng/mL.
